pIC50: −log10 of the molar value.
What was measured:
[1] = tested on: gastric tone in conscious dogs; test: Gastric tone measured by an electronic barostat in conscious dogs; format: in vivo, beagle dogs; conditions: mean maximal change in gastric volume 1 hour after administration, intragastric pressure 6 mmHg
Procedure: C.1. Gastric Tone Measured by an Electronic Barostat in Conscious Dogs
Gastric tone cannot be measured by manometric methods. Therefore an electronic barostat was used. This allows the study of the physiological pattern and regulation of gastric tone in conscious dogs and the influence of test-compounds on this tone.
The barostat consists of an air injection system which is connected by a double-lumen 14-French polyvinyl tube to an ultrathin flaccid polyethylene bag (maximal volume: ±700 ml). Variations in gastric tone were measured by recording changes in the volume of air within an intragastric bag, maintained at a constant pressure. The barostat maintains a constant pressure (preselected) within a flaccid air-filled bag introduced into the stomach, changing the volume of air within the bag by an electronic feedback system.
Thus, the barostat measures gastric motor activity (contraction or relaxation) as changes in intragastric volume (decrease or increase resp.) at a constant intragastric pressure. The barostat consists of a strain gauge linked by an electronic relay to an air injection-aspiration system. Both the strain gauge and the injection system are connected by means of double-lumen polyvinyl tube to an ultrathin polyethylene bag. A dial in the barostat allows selection of the pressure level to be maintained within the intragastric bag.
Female beagle dogs, weighing 7-17 kg, were trained to stand quietly in Pavlov frames. They were implanted with a gastric cannula under general anaesthesia and aseptic precautions. After a median laparotomy, an incision was made through the gastric wall in longitudinal direction between the greater and the lesser curve, 2 cm above the nerves of Latarjet. The cannula was secured to the gastric wall by means of a double purse string suture and brought out via a stub wound at the left quadrant of the hypochondrium. Dogs were allowed a recovery period of two weeks.
At the beginning of the experiment, the cannula is opened in order to remove any gastric juice or food remnants. If necessary, the stomach is cleansed with 40 to 50 ml lukewarm water. The ultrathin bag of the barostat is positioned into the fundus of the stomach through the gastric cannula. In order to ensure easy unfolding of the intragastric bag during the experiment, a volume of 150-200 ml is injected into the bag by raising the pressure to maximally 14 mm Hg (about 1.87 kPa) very briefly. This procedure is repeated twice.
After a stabilization period of 60 minutes at an intragastric pressure of 6 mmHg (about 0.81 kPa), the test compound was administered subcutaneously, or intraduodenally. […] Table C-1 summarizes the mean maximal change in volume 1 hour after I.D. or S.C. administration of the compound (R)-N-(1-azabicyclo[2.2.2]oct-3-yl)-4,7-dihydro-7-oxothieno[3,2-b]pyridine-6-carboxamide monohydrochloride at test concentrations of 0.63 mg/kg, 0.16 mg/kg and 0.04 mg/kg.

5-HT3 receptor = conditions: canine intestinal smooth muscle; read-out: affinity for the 5-HT3 receptor IC50; cited from earlier work

## Cl.O=C(N[C@H]1CN2CCC1CC2)c1c[nH]c2ccsc2c1=O [(R)-N-(1-azabicyclo[2.2.2]oct-3-yl)-4,7-dihydro-7-oxothieno[3,2-b]pyridine-6-carboxamide monohydrochloride]
[1]; I.D. administration, 0.04 mg/kg
  Maximum change in volume: 57 mL
[1]; I.D. administration, 0.16 mg/kg
  Maximum change in volume: 51 mL
[1]; I.D. administration, 0.63 mg/kg
  Maximum change in volume: 104 mL
[1]; S.C. administration, 0.04 mg/kg
  Maximum change in volume: 127 mL
[1]; S.C. administration, 0.16 mg/kg
  Maximum change in volume: 108 mL
[1]; S.C. administration, 0.63 mg/kg
  Maximum change in volume: 156 mL
5-HT3 receptor
  pIC50: 8.89

Reference: US20050119297A1, “Use of 5HT3 agonists for relaxing the fundus” (priority 1999, published 2005)
